Measured values: US20260306640A1, “TECHNOLOGIES TARGETING CELL STATES” (Auron Therapeutics, Inc., priority 2023, published 2026)

Assays:
KAT2A = KAT2A (Homo sapiens, UniProt Q92830); assay: KAT2A degradation, Western Blot (Jess), NCI-H1048 cells; assay type: cell-based; set-up: degrader, Western blot (Jess); details: NCI-H1048 cells, KAT2A, 24 h, Western Blot, vs DMSO; read-out: KAT2A NCI-H1048 DC50
Method: (§1) MOLM-13 cells or NCI-H1048 cells were used for Western Blot analysis of KAT2A degradation. KAT2B degradation can be measured in a similar manner with NCI-H1048 cells.
(§2) H1048 cells were maintained at 37° C. in 5% CO2 and 90% humidity in HITES medium with 5% fetal bovine serum (FBS). HITES medium was […] with the following additions: 0.005 mg/ml Insulin, 0.01 mg/ml Transferrin, 30 nM Sodium selenite, 10 nM Hydrocortisone, 10 nM beta-estradiol, and extra 2 mM L-glutamine (for final concentration of 4.5 mM). Cells were plated in full media at 1 million cells/2 mL in a 6-well tissue culture treated plate with or without compounds for 24 h at 37° C. in 5% CO2.
(§3) MOLM-13 cells or NCI-H1048 cells were washed with PBS, then lysed with RIPA buffer containing 1×protease and phosphatase inhibitors (SantaCruz Biotechnologies Cat #sc-24948A). Protein was isolated by centrifugation at 12,000×g for 10 minutes at 4° C. and supernatant was collected. Protein was quantified via Bradford assay. Samples were diluted to 4 μg lysate in 16 μL RIPA buffer and then 4 μL of Jess Sample Buffer. Samples were heated at 95° C. for 5 minutes. Samples were loaded onto 12-230 kDa Jess™ Separation Module, 8×25 capillary cartridges (SM-W004, Biotechne). Antibodies loaded were: Primary antibody for KAT2A (GCN5L2 (C26A10) Rabbit mAb (3305, CST)) and for KAT2B (PCAF (C14G9)) Rabbit mAb (3378, CST) at 1:1000 and Anti-Rabbit Detection Module for Jess™ (Cat No #DM-001, Biotechne). Signal was detected by chemiluminescence.
(§4) DC50 values were determined from percent reduction of protein as compared to the DMSO control.

KAT2B = KAT2B (Homo sapiens, UniProt Q92831); assay: KAT2B degradation, Western Blot (Jess), NCI-H1048 cells; assay type: cell-based; set-up: degrader, Western blot (Jess); details: NCI-H1048 cells, KAT2B, 24 h, Western Blot, vs DMSO; read-out: KAT2B NCI-H1048 DC50
Method: as §1, §2, §3, §4

Chain of KAT2A (Q92830 whole entry): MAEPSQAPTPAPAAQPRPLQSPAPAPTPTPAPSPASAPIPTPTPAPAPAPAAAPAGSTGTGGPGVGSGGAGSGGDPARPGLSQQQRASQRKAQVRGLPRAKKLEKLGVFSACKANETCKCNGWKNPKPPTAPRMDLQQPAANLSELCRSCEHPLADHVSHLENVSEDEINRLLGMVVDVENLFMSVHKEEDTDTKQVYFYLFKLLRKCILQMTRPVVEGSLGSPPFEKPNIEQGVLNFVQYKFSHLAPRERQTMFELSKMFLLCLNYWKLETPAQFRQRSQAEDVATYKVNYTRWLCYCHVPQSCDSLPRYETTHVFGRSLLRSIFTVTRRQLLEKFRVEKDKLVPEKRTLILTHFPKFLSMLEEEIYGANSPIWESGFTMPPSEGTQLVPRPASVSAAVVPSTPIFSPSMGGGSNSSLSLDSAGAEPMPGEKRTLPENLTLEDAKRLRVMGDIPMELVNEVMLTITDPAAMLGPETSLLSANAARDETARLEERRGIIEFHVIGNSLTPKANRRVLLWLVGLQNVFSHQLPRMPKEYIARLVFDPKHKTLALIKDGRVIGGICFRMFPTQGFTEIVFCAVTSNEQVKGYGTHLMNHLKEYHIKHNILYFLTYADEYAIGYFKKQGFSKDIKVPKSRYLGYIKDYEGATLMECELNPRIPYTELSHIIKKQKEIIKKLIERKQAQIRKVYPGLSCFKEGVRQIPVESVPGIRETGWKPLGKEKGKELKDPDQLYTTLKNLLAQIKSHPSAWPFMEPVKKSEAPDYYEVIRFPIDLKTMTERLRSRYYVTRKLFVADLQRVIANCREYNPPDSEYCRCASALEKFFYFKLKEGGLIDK
Chain of KAT2B (Q92831 whole entry): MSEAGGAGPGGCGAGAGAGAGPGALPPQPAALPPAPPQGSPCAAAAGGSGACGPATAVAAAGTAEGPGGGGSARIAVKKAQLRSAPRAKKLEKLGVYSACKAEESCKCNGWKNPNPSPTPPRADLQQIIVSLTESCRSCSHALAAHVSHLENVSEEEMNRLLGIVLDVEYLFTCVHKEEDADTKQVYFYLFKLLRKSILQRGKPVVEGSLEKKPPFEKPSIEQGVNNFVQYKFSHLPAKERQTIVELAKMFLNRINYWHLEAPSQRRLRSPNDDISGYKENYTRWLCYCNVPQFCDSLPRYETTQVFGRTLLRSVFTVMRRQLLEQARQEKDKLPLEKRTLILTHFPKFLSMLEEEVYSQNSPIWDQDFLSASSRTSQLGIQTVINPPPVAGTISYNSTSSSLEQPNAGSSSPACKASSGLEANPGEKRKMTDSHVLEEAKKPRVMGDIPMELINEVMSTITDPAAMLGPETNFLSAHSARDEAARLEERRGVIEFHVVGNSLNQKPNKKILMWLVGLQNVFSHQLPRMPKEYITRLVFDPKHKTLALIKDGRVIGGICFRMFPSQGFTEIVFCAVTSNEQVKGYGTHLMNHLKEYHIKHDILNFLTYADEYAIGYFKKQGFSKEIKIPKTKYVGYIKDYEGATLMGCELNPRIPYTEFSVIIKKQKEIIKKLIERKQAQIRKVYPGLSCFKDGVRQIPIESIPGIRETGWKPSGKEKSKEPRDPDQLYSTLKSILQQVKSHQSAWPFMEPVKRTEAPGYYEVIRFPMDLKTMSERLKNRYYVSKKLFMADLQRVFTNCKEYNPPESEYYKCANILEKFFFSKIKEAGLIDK

Row | Structure (SMILES) | DC50 (KAT2A) [nM] | DC50 (KAT2B) [nM]
1 | CN1C[C@H](Nc2cnn(C)c(=O)c2Br)C[C@H](c2ccc(CN3CCN(C4CCC(N5CCC(=O)NC5=O)CC4)CC3)cc2)C1 (stereo partly shown) [Compound 206] | > 30 | > 30
2 | CN1C[C@H](Nc2cnn(C)c(=O)c2Cl)C[C@H](c2ccc(C(=O)N3CCC4(CC3)CCN(c3cnn(C5CCC(=O)NC5=O)c3)CC4)cc2)C1 (stereo partly shown) [Compound 207] | < 1 | > 30
3 | CN1C[C@H](Nc2cnn(C)c(=O)c2Cl)C[C@H](c2ccc(C(=O)N3CCC4(CC3)CCN(c3ccc5c(c3)oc(=O)n5C3CCC(=O)NC3=O)CC4)cc2)C1 (stereo partly shown) [Compound 209] | < 1 | < 1
4 | CN1C[C@H](Nc2cnn(C)c(=O)c2Br)C[C@H](c2ccc(C(=O)N3CCC4(CC3)CCN(c3cnn(C5CCC(=O)NC5=O)c3)CC4)cc2)C1 (stereo partly shown) [Compound 210] | 1 to 30 | < 1
5 | CN1C[C@H](Nc2cnn(C)c(=O)c2Br)C[C@H](c2ccc(C(=O)N3CCC4(CC3)CCN(c3ccc5c(C6CCC(=O)NC6=O)nn(C)c5c3)CC4)cc2)C1 (stereo partly shown) [Compound 211] | < 1 | < 1
6 | CN1C[C@H](Nc2cnn(C)c(=O)c2Br)C[C@H](c2ccc(C(=O)N3CCC4(CC3)CCN(c3ccc5nnn(C6CCC(=O)NC6=O)c5c3)CC4)cc2)C1 (stereo partly shown) [Compound 212] | 1 to 30 | > 30
7 | Cc1cc(N2CCC3(CCN(C(=O)c4ccc([C@H]5C[C@@H](Nc6c(F)nn(C)c(=O)c6Br)CN(C)C5)cc4)CC3)CC2)ccc1C1CCC(=O)NC1=O (stereo partly shown) [Compound 213] | < 1 | 1 to 30
8 | CN1C[C@H](Nc2cnn(C)c(=O)c2Cl)C[C@H](c2ccc(C(=O)N3CCC4(CC3)CCN(c3ccc5nnn(C6CCC(=O)NC6=O)c5c3)CC4)cc2)C1 (stereo partly shown) [Compound 214] | 1 to 30 | > 30
9 | CN1C[C@H](Nc2cnn(C)c(=O)c2Cl)C[C@H](c2ccc(C(=O)N3CCC4(CCN(Cc5ccc(C6CCC(=O)NC6=O)c(F)c5)CC4)CC3)cc2)C1 (stereo partly shown) [Compound 215] | < 1 | < 1
10 | CCn1ncc(N[C@@H]2C[C@H](c3ccc(C(=O)N4CCC5(CC4)CCN(c4ccc(C6CCC(=O)NC6=O)c(C)c4)CC5)cc3)CN(C)C2)c(Br)c1=O (stereo partly shown) [Compound 216] | < 1 | < 1
11 | CN1C[C@H](Nc2cnn(C)c(=O)c2Br)C[C@H](c2ccc(C(=O)N3CCC4(CC3)CCN(c3ccn(C5CCC(=O)NC5=O)c(=O)c3)CC4)cc2)C1 (stereo partly shown) [Compound 217] | 1 to 30 | > 30
12 | Cc1cc(C2CCC(=O)NC2=O)c(F)cc1N1CCC2(CCN(C(=O)c3ccc([C@H]4C[C@@H](Nc5cnn(C)c(=O)c5Cl)CN(C)C4)cc3)CC2)CC1 (stereo partly shown) [Compound 218] | < 1 | 1 to 30
13 | CN1C[C@H](Nc2cnn(C)c(=O)c2Br)C[C@H](c2ccc(C(=O)N3CCC4(CC3)CCN(c3ccc(C5CCC(=O)NC5=O)cc3C(F)(F)F)CC4)cc2)C1 (stereo partly shown) [Compound 220] | < 1 | 1 to 30
14 | CN1C[C@H](Nc2cnn(C)c(=O)c2Br)C[C@H](c2ccc(C(=O)N3CCC4(CC3)CCN(c3ccc(C5CCC(=O)NC5=O)c(C(F)(F)F)c3)CC4)cc2)C1 (stereo partly shown) [Compound 221] | > 30 | > 30
15 | CN1C[C@H](Nc2cnn(C)c(=O)c2Cl)C[C@H](c2ccc(C(=O)N3CCC4(CC3)CCN(c3ccc(C5CCC(=O)NC5=O)c(C(F)(F)F)c3)CC4)cc2)C1 (stereo partly shown) [Compound 222] | > 30 | > 30
16 | Cc1c(N[C@@H]2C[C@H](c3ccc(C(=O)N4CCC5(CC4)CCN(c4ccc(C6CCC(=O)NC6=O)c(C(F)(F)F)c4)CC5)cc3)CN(C)C2)cnn(C)c1=O (stereo partly shown) [Compound 224] | > 30 | > 30
17 | Cc1c(N[C@@H]2C[C@H](c3ccc(C(=O)N4CCC5(CC4)CCN(c4ccc(C6CCC(=O)NC6=O)cc4F)CC5)cc3)CN(C)C2)cnn(C)c1=O (stereo partly shown) [Compound 225] | < 1 | 1 to 30
18 | Cc1c(N[C@@H]2C[C@H](c3ccc(C(=O)N4CCC5(CC4)CCN(c4ccc(C6CCC(=O)NC6=O)cc4C(F)(F)F)CC5)cc3)CN(C)C2)cnn(C)c1=O (stereo partly shown) [Compound 226] | < 1 | 1 to 30
19 | CN1C[C@H](Nc2cnn(C)c(=O)c2Cl)C[C@H](c2ccc(C(=O)N3CCC4(CC3)CCN(c3ccc(C5CCC(=O)NC5=O)cc3C(F)(F)F)CC4)cc2)C1 (stereo partly shown) [Compound 227] | < 1 | 1 to 30

Row | Structure (SMILES) | DC50 (KAT2A) [nM] | DC50 (KAT2B) [nM]
20 | Cc1c(N[C@@H]2C[C@H](c3ccc(C(=O)N4CCC5(CC4)CCN(c4cc(C(F)(F)F)c(C6CCC(=O)NC6=O)cn4)CC5)cc3)CN(C)C2)cnn(C)c1=O (stereo partly shown) [Compound 230] | 1 to 30 | 1 to 30
21 | CN1C[C@H](Nc2cnn(C)c(=O)c2Cl)C[C@H](c2ccc(C(=O)N3CCC4(CC3)CCN(c3cc(C5CCC(=O)NC5=O)ccn3)CC4)cc2)C1 (stereo partly shown) [Compound 234] | < 1 | < 1
22 | Cc1c(N2CCC3(CCN(C(=O)c4ccc([C@H]5C[C@@H](Nc6cnn(C)c(=O)c6Br)CN(C)C5)cc4)CC3)CC2)ccc(C2CCC(=O)NC2=O)c1F (stereo partly shown) [Compound 235] | < 1 | < 1
23 | Cc1c(N2CCC3(CCN(C(=O)c4ccc([C@H]5C[C@@H](Nc6cnn(C)c(=O)c6C)CN(C)C5)cc4)CC3)CC2)ccc(C2CCC(=O)NC2=O)c1F (stereo partly shown) [Compound 236] | < 1 | 1 to 30
24 | Cc1c(N2CCC3(CCN(C(=O)c4ccc([C@H]5C[C@@H](Nc6cnn(C)c(=O)c6Cl)CN(C)C5)cc4)CC3)CC2)ccc(C2CCC(=O)NC2=O)c1F (stereo partly shown) [Compound 237] | < 1 | 1 to 30
25 | Cc1c(N[C@@H]2C[C@H](c3ccc(C(=O)N4CCC5(CC4)CCN(c4ccc(C6CCC(=O)NC6=O)nc4)CC5)cc3)CN(C)C2)cnn(C)c1=O (stereo partly shown) [Compound 241] | < 1 | 1 to 30
26 | Cc1cc(N2CCC3(CCN(C(=O)c4ccc([C@H]5C[C@@H](Nc6cnn(C)c(=O)c6C)CN(C)C5)cc4)CC3)CC2)c(F)cc1C1CCC(=O)NC1=O (stereo partly shown) [Compound 244] | 1 to 30 | > 30
27 | Cc1cc(N2CCC3(CCN(C(=O)c4ccc([C@H]5C[C@@H](Nc6cnn(C)c(=O)c6C)CN(C)C5)cc4)CC3)CC2)cnc1C1CCC(=O)NC1=O (stereo partly shown) [Compound 245] | < 1 | 1 to 30
28 | Cc1cc(N2CCC3(CCN(C(=O)c4ccc([C@H]5C[C@@H](Nc6cnn(C)c(=O)c6Br)CN(C)C5)cc4)CC3)CC2)cnc1C1CCC(=O)NC1=O (stereo partly shown) [Compound 246] | < 1 | < 1
29 | Cc1cc(N2CCC3(CCN(C(=O)c4ccc([C@H]5C[C@@H](Nc6cnn(C)c(=O)c6Cl)CN(C)C5)cc4)CC3)CC2)cnc1C1CCC(=O)NC1=O (stereo partly shown) [Compound 247] | < 1 | 1 to 30
30 | Cc1cc(C2CCC(=O)NC2=O)ccc1N1CCC2(CCN(C(=O)c3ccc([C@H]4C[C@@H](Nc5cnn(C)c(=O)c5Br)CN(C)C4)cc3)CC2)CC1 (stereo partly shown) [Compound 248] | < 1 | 1 to 30
31 | Cc1cc(C2CCC(=O)NC2=O)ccc1N1CCC2(CCN(C(=O)c3ccc([C@H]4C[C@@H](Nc5cnn(C)c(=O)c5C)CN(C)C4)cc3)CC2)CC1 (stereo partly shown) [Compound 249] | < 1 | 1 to 30
32 | CN1C[C@H](Nc2cnn(C)c(=O)c2Cl)C[C@H](c2ccc(C(=O)N3CCC4(CC3)CCN(c3ccc(C5CCC(=O)NC5=O)c(F)c3F)CC4)cc2)C1 (stereo partly shown) [Compound 251] | < 1 | 1 to 30
33 | Cc1c(N[C@@H]2C[C@H](c3ccc(C(=O)N4CCC5(CC4)CCN(c4ccc(C6CCC(=O)NC6=O)c(F)c4F)CC5)cc3)CN(C)C2)cnn(C)c1=O (stereo partly shown) [Compound 252] | < 1 | 1 to 30
34 | Cc1c(C2CCC(=O)NC2=O)ccc(N2CCC3(CCN(C(=O)c4ccc([C@H]5C[C@@H](Nc6cnn(C)c(=O)c6Br)CN(C)C5)cc4)CC3)CC2)c1F (stereo partly shown) [Compound 254] | < 1 | 1 to 30
35 | Cc1cc(N2CCC3(CCN(C(=O)c4ccc([C@H]5C[C@@H](Nc6cnn(C)c(=O)c6C)CN(C)C5)cc4)CC3)CC2)cc(F)c1C1CCC(=O)NC1=O (stereo partly shown) [Compound 255] | < 1 | < 1
36 | Cc1c(C2CCC(=O)NC2=O)ccc(N2CCC3(CCN(C(=O)c4ccc([C@H]5C[C@@H](Nc6cnn(C)c(=O)c6C)CN(C)C5)cc4)CC3)CC2)c1F (stereo partly shown) [Compound 256] | < 1 | 1 to 30
37 | COc1cc(C2CCC(=O)NC2=O)ccc1N1CCC2(CCN(C(=O)c3ccc([C@H]4C[C@@H](Nc5cnn(C)c(=O)c5C)CN(C)C4)cc3)CC2)CC1 (stereo partly shown) [Compound 257] | < 1 | 1 to 30
38 | COc1cc(C2CCC(=O)NC2=O)ccc1N1CCC2(CCN(C(=O)c3ccc([C@H]4C[C@@H](Nc5cnn(C)c(=O)c5Cl)CN(C)C4)cc3)CC2)CC1 (stereo partly shown) [Compound 258] | < 1 | > 30
